{
  "source": "patent US9730445B2",
  "about": "“Herbicidal compositions comprising 4-amino-3-chloro-5-fluoro-6-(4-chloro-2-fluoro-3-methoxyphenyl) pyridine-2-carboxylic acid or a derivative thereof and fungicides” (DOW AGROSCIENCES LLC, priority 2013, dated 2017)",
  "key": {"ECHCG": {"system": "ECHCG", "experiment": "Postemergence foliar-applied weed control, direct-seeded rice (greenhouse)", "type": "in vivo, Echinochloa crus-galli (L.) P. Beauv. (barnyardgrass)"}, "FIMMI": {"system": "FIMMI", "experiment": "In-water applied weed control, transplanted paddy rice (greenhouse)", "type": "in vivo, Fimbristylis miliacea (L.) Vahl (globe fringerush)", "method": "Weed seeds or nutlets of the desired test plant species were planted in puddled soil (mud) prepared by mixing a shredded, non-sterilized mineral soil (50.5 percent silt, 25.5 percent clay, and 24 percent sand, with a pH of about 7.6 and an organic matter content of about 2.9 percent) and water at a 1:1 volumetric ratio. The prepared mud was dispensed in 365 mL aliquots into 16-ounce (oz.) non-perforated plastic pots with a surface area of 86.59 square centimeters (cm^2) leaving a headspace of 3 centimeters (cm) in each pot. Rice seeds were planted in Sun Gro MetroMix® 306 planting mixture, which typically has a pH of 6.0 to 6.8 and an organic matter content of about 30 percent, in plastic plug trays. Seedlings at the second or third leaf stage of growth were transplanted into 860 mL of mud contained in 32-oz. non-perforated plastic pots with a surface area of 86.59 cm^2 4 days prior to herbicide application. The paddy was created by filling the headspace of the pots with 2.5 to 3 cm of water. When required to ensure good germination and healthy plants, a fungicide treatment and/or other chemical or physical treatment was applied. The plants were grown for 4-22 days in a greenhouse with an approximate 14 hour (h) photoperiod which was maintained at about 29° C. during the day and about 26° C. during the night. Nutrients were added as Osmocote® (17:6:10, N:P:K+minor nutrients) at 2 g per cup. Water was added on a regular basis to maintain the paddy flood, and supplemental lighting was provided with overhead metal halide 1000-Watt lamps as necessary. The plants were employed for testing when they reached the first through fourth true leaf stage. […]\nTreatment requirements for each compound or fungicidal component were calculated based upon the rates being tested, the concentration of active ingredient or acid equivalent in the formulation, an application volume of 2 mL per component per pot, and an application area of 86.59 cm^2 per pot.\nFor formulated compounds, a measured amount was placed in an individual 100 or 200 mL glass vial and was dissolved in a volume of 1.25% (v/v) Agri-Dex® crop oil concentrate to obtain application solutions. […]\nThe treated plants and control plants were placed in a greenhouse as described above and water was added as needed to maintain a paddy flood. After approximately 3 weeks the condition of the test plants as compared with that of the untreated plants was determined visually and scored on a scale of 0 to 100 percent where 0 corresponds to no injury or growth inhibition and 100 corresponds to complete kill. […]"}},
  "note": "Several values for one entry are separate records, joined by “and”; a condition that tells them apart may be missing. Identical values can stand only once.",
  "data": [
    {"smiles": "COc1c(Cl)ccc(-c2nc(C(=O)OCc3ccccc3)c(Cl)c(N)c2F)c1F", "note": "[Compound A Benzyl Ester]", "values": [
      {"measurement": "Visual Weed Control (%)—21 DAA ECHCG Obs", "setting": "ECHCG; r9-11 ester 8/16/32 g ae/ha alone, r12-14 hexaconazole 25/50/100 g ai/ha alone, r15-23 ester 8/16/32 at each of 25, 50, 100", "result": "85% and 90% and 45%"},
      {"measurement": "Visual Weed Control (%)—21 DAA ECHCG Obs", "setting": "ECHCG; r38-39 ester 8/16 g ae/ha alone, r40 isotianil 380 g ai/ha alone, r41-42 ester 8/16 + 380", "result": "45% and 85%"},
      {"measurement": "Visual Weed Control (%) - 21 DAA ECHCG Obs", "setting": "ECHCG; r58-60 ester 8/16/32 g ae/ha alone, r61-63 difenoconazole 50/100/200 g ai/ha alone, r64-72 ester 8/16/32 at each of 50, 100, 200", "result": "70% and 60% and 90%"},
      {"measurement": "Visual Weed Control (%) - 22 DAA FIMMI Obs", "setting": "FIMMI; Compound A Benzyl Ester 4.38 g ae/ha", "result": 50, "unit": "%"},
      {"measurement": "Visual Weed Control (%) - 22 DAA FIMMI Obs", "setting": "FIMMI; Compound A Benzyl Ester 8.75 g ae/ha", "result": 80, "unit": "%"},
      {"measurement": "Visual Weed Control (%) - 22 DAA FIMMI Obs", "setting": "FIMMI; Compound A Benzyl Ester 17.5 g ae/ha", "result": 100, "unit": "%"}
    ]}
  ]
}
